Results published in patent publication US5807535A, “Metal complexes of hydroxyaryl containing aminocarboxylic acid chelating agents” (Australian Nuclear Science & Technology Organisation, priority 1992, dated 1998).
Read-outs that look alike come from different tables or passages of the source.

Legend:
[1] = Biodistribution of compound No. 6 in mice (Table 6); type: in vivo, Balb/c mice; settings: mouse; for tissue uptake at 0.05 h: 3 min
Description: (§1) A series of derivatives incorporating carboxyl and phenolate donor groups (1-6) were synthesised by literature method and their radiolabelling characteristic and biological behaviour evaluated. Initial work involved an investigation of radiochemical properties of the ^99m Tc complexes of the ligands and their biodistribution in rats and mice (see Tables 1-6 and 8-12).
(§2) A typical method of radiolabelling of the chelator was achieved by dissolving the chelator in a basic solution of saline. The pH was then adjusted to approx. 6 with HCl. Excess stannous chloride was added to the resultant solution followed by one equivalent volume of sodium ^99m TcO4 (10-50 mCi/ml). Final concentration of the chelator was approx. 1 mg/ml. The efficacy of labelling was determined by ITLC-SG. For each product only one main radiochemical species was observed. Each complex was diluted to 15 μCi/100 μl with saline. […] (See FIGS. 1A and 1B).

[2] = Biodistribution of 99mTc complexes in mice; type: in vivo, Balb/c mice
Description: as §1, §2

[3] = Biodistribution of 67Ga complexes in mice; type: in vivo, balb/c mice
Procedure: To ligand (50 μL, 10 mg/mL, 0.2 M NaOAc, […]) was added ^67 Ga citrate (18.5 MBq) and the resultant mixture diluted to 1 mL (0.2 M NaOAc, pH 7). The pH was adjusted to 12 with 1 M NaOH (20 μL) and heated at 40° C. for 40 min. The final volume was adjusted (to 5 mL) with saline and sterilised by filtering through a 0.22 μm filter.
Each animal was injected via tail vein with ^67 Ga complex (100 μL, ~3.7×10^5 Bq). Animals were sacrificed at various time intervals (5 animals per time point/6 time points). Data are illustrated in FIG. 26-30 and in Tables 13-17.
Each ^67 Ga-ligand complex has been evaluated in balb/c mice. […] (see FIG. 26-30).

[4] = blood, read-out: biodistribution blood
[5] = bone, read-out: biodistribution bone
[6] = brain, read-out: biodistribution brain
[7] = heart, read-out: biodistribution heart
[8] = kidneys, read-out: biodistribution kidneys
[9] = liver, read-out: biodistribution liver
[10] = lungs, read-out: biodistribution lungs
[11] = muscle, read-out: biodistribution muscle
[12] = pancreas, read-out: biodistribution pancreas
[13] = skin, read-out: biodistribution skin
[14] = spleen, read-out: biodistribution spleen
[15] = stomach, read-out: biodistribution stomach
[16] = tail, read-out: biodistribution tail
[17] = thymus, read-out: biodistribution thymus
[18] = thyroid, read-out: biodistribution thyroid
[19] = total git, read-out: biodistribution tot GIT
[20] = urine, read-out: biodistribution urine

Molecule Cc1cc(C)c(O)c(NC(=O)CN(CCN(CC(=O)O)CC(=O)Nc2cc(C)cc(C)c2O)CC(=O)O)c1 [Compound 6] has a tissue uptake at 0.05 h [1, 4] of 10.7 %ID/g, a tissue uptake at 5 min [1, 4] of 7.83 %ID/g and a tissue uptake at 0.05 h [1, 5] of 1.91 %ID/g. The tissue uptake at 5 min [1, 5] was 1.39 %ID/g, the tissue uptake at 0.05 h [1, 6] was 0.74 %ID/g and the tissue uptake at 5 min [1, 6] was 0.35 %ID/g. For the same molecule, the tissue uptake at 0.05 h [1, 7] was 3.84 %ID/g, the tissue uptake at 5 min [1, 7] was 2.8 %ID/g and the tissue uptake at 0.05 h [1, 8] was 24.1 %ID/g. For the same molecule, the tissue uptake at 5 min [1, 8] was 18.4 %ID/g, the tissue uptake at 0.05 h [1, 9] was 6.52 %ID/g and the tissue uptake at 5 min [1, 9] was 9.39 %ID/g. The tissue uptake at 0.05 h [1, 10] was 6.38 %ID/g, the tissue uptake at 5 min [1, 10] was 4.66 %ID/g and the tissue uptake at 0.05 h [1, 11] was 1.81 %ID/g. For the same molecule, the tissue uptake at 5 min [1, 11] was 1.26 %ID/g, the tissue uptake at 0.05 h [1, 12] was 1.86 %ID/g and the tissue uptake at 5 min [1, 12] was 1.41 %ID/g. For the same molecule, the tissue uptake at 0.05 h [1, 13] was 3.96 %ID/g, the tissue uptake at 5 min [1, 13] was 3.47 %ID/g and the tissue uptake at 0.05 h [1, 14] was 2.24 %ID/g. It also gave a tissue uptake at 5 min [1, 14] of 1.78 %ID/g, a tissue uptake at 0.05 h [1, 15] of 1.78 %ID/g and a tissue uptake at 5 min [1, 15] of 6.85 %ID/g. It also gave a tissue uptake at 0.05 h [1, 16] of 8.94 %ID/g, a tissue uptake at 5 min [1, 16] of 6.18 %ID/g and a tissue uptake at 0.05 h [1, 17] of 3.67 %ID/g. The tissue uptake at 5 min [1, 17] was 2.5 %ID/g, the tissue uptake at 0.05 h [1, 18] was 5.76 %ID/g and the tissue uptake at 5 min [1, 18] was 3.73 %ID/g. For the same molecule, the tissue uptake at 0.05 h [1, 19] was 1.03 %ID/g, the tissue uptake at 5 min [1, 19] was 2.12 %ID/g and the tissue uptake at 0.05 h [1, 20] was 1.3 %ID/g. For the same molecule, the tissue uptake at 5 min [1, 20] was 0.95 %ID/g, the “biodistribution GIT” value ([2]; 1 min) was 3.58 % Injected dose and the biodistribution bladder ([2]; 1 min) was 0.06 % Injected dose. The biodistribution blood ([2]; 1 min) was 41.63 % Injected dose, the biodistribution bone ([2]; 1 min) was 7.37 % Injected dose and the biodistribution heart ([2]; 1 min) was 0.46 % Injected dose. For the same molecule, the biodistribution kidney ([2]; 1 min) was 7.57 % Injected dose, the biodistribution liver ([2]; 1 min) was 22.44 % Injected dose and the biodistribution lungs ([2]; 1 min) was 1.71 % Injected dose. For the same molecule, the biodistribution muscle ([2]; 1 min) was 13.95 % Injected dose, the biodistribution skin ([2]; 1 min) was 8.13 % Injected dose and the biodistribution spleen ([2]; 1 min) was 0.2 % Injected dose. For the same molecule, the biodistribution stomach ([2]; 1 min) was 0.4 % Injected dose, the biodistribution tail ([2]; 1 min) was 8.46 % Injected dose and the biodistribution urine ([2]; 1 min) was 0.07 % Injected dose. The “biodistribution GIT” value ([2]; 3 min) was 11.98 % Injected dose, the biodistribution bladder ([2]; 3 min) was 0.08 % Injected dose and the biodistribution blood ([2]; 3 min) was 15.59 % Injected dose. The biodistribution bone ([2]; 3 min) was 3.5 % Injected dose, the biodistribution heart ([2]; 3 min) was 0.2 % Injected dose and the biodistribution kidney ([2]; 3 min) was 5.68 % Injected dose. The biodistribution liver ([2]; 3 min) was 35.66 % Injected dose, the biodistribution lungs ([2]; 3 min) was 0.65 % Injected dose and the biodistribution muscle ([2]; 3 min) was 7.87 % Injected dose. The biodistribution skin ([2]; 3 min) was 8.31 % Injected dose, the biodistribution spleen ([2]; 3 min) was 0.09 % Injected dose and the biodistribution stomach ([2]; 3 min) was 0.43 % Injected dose. For the same molecule, the biodistribution tail ([2]; 3 min) was 7.37 % Injected dose, the biodistribution urine ([2]; 3 min) was 0.81 % Injected dose and the “biodistribution GIT” value ([2]; 5 min) was 27.85 % Injected dose. The biodistribution bladder ([2]; 5 min) was 0.07 % Injected dose, the biodistribution blood ([2]; 5 min) was 10.31 % Injected dose and the biodistribution bone ([2]; 5 min) was 3.86 % Injected dose. It also gave a biodistribution heart ([2]; 5 min) of 0.16 % Injected dose, a biodistribution kidney ([2]; 5 min) of 4.53 % Injected dose and a biodistribution liver ([2]; 5 min) of 30.85 % Injected dose. The biodistribution lungs ([2]; 5 min) was 0.69 % Injected dose, the biodistribution muscle ([2]; 5 min) was 7.24 % Injected dose and the biodistribution skin ([2]; 5 min) was 9.28 % Injected dose. The biodistribution spleen ([2]; 5 min) was 0.14 % Injected dose, the biodistribution stomach ([2]; 5 min) was 5.42 % Injected dose and the biodistribution tail ([2]; 5 min) was 7.64 % Injected dose. For the same molecule, the biodistribution urine ([2]; 5 min) was 0.59 % Injected dose, the “biodistribution GIT” value ([2]; 10 min) was 45.71 % Injected dose and the biodistribution bladder ([2]; 10 min) was 0.23 % Injected dose. It also gave a biodistribution blood ([2]; 10 min) of 6.34 % Injected dose, a biodistribution bone ([2]; 10 min) of 2.76 % Injected dose and a biodistribution heart ([2]; 10 min) of 0.08 % Injected dose. The biodistribution kidney ([2]; 10 min) was 2.44 % Injected dose, the biodistribution liver ([2]; 10 min) was 16.04 % Injected dose and the biodistribution lungs ([2]; 10 min) was 0.45 % Injected dose. For the same molecule, the biodistribution muscle ([2]; 10 min) was 5.27 % Injected dose, the biodistribution skin ([2]; 10 min) was 5.17 % Injected dose and the biodistribution spleen ([2]; 10 min) was 0.07 % Injected dose. For the same molecule, the biodistribution stomach ([2]; 10 min) was 3.42 % Injected dose, the biodistribution tail ([2]; 10 min) was 4.77 % Injected dose and the biodistribution urine ([2]; 10 min) was 1.231 % Injected dose. For the same molecule, the “biodistribution GIT” value ([2]; 30 min) was 51.18 % Injected dose, the biodistribution bladder ([2]; 30 min) was 0.2 % Injected dose and the biodistribution blood ([2]; 30 min) was 9.66 % Injected dose. For the same molecule, the biodistribution bone ([2]; 30 min) was 2.54 % Injected dose, the biodistribution heart ([2]; 30 min) was 0.11 % Injected dose and the biodistribution kidney ([2]; 30 min) was 1.9 % Injected dose. The biodistribution liver ([2]; 30 min) was 14.05 % Injected dose, the biodistribution lungs ([2]; 30 min) was 0.39 % Injected dose and the biodistribution muscle ([2]; 30 min) was 6.92 % Injected dose. It also gave a biodistribution skin ([2]; 30 min) of 4.23 % Injected dose, a biodistribution spleen ([2]; 30 min) of 0.06 % Injected dose and a biodistribution stomach ([2]; 30 min) of 1.73 % Injected dose. For the same molecule, the biodistribution tail ([2]; 30 min) was 2.41 % Injected dose, the biodistribution urine ([2]; 30 min) was 1.64 % Injected dose and the biodistribution bone ([3]; 1 min) was 4.33 % ID. It also gave a biodistribution kidney ([3]; 1 min) of 9.95 % ID, a biodistribution liver ([3]; 1 min) of 26.45 % ID and a biodistribution muscle ([3]; 1 min) of 17.93 % ID. It also gave a biodistribution skin ([3]; 1 min) of 13.91 % ID, a biodistribution spleen ([3]; 1 min) of 0.22 % ID and a biodistribution bone ([3]; 3 min) of 2.41 % ID. For the same molecule, the biodistribution kidney ([3]; 3 min) was 5.24 % ID, the biodistribution liver ([3]; 3 min) was 34.06 % ID and the biodistribution muscle ([3]; 3 min) was 10.67 % ID. For the same molecule, the biodistribution skin ([3]; 3 min) was 12.80 % ID, the biodistribution spleen ([3]; 3 min) was 0.08 % ID and the biodistribution bone ([3]; 5 min) was 1.67 % ID. The biodistribution kidney ([3]; 5 min) was 3.36 % ID, the biodistribution liver ([3]; 5 min) was 30.21 % ID and the biodistribution muscle ([3]; 5 min) was 6.35 % ID. It also gave a biodistribution skin ([3]; 5 min) of 10.62 % ID, a biodistribution spleen ([3]; 5 min) of 0.04 % ID and a biodistribution bone ([3]; 10 min) of 0.96 % ID. The biodistribution kidney ([3]; 10 min) was 1.98 % ID, the biodistribution liver ([3]; 10 min) was 18.58 % ID and the biodistribution muscle ([3]; 10 min) was 4.37 % ID. It also gave a biodistribution skin ([3]; 10 min) of 5.76 % ID, a biodistribution spleen ([3]; 10 min) of 0.03 % ID and a biodistribution bone ([3]; 30 min) of 0.34 % ID. It also gave a biodistribution kidney ([3]; 30 min) of 0.79 % ID, a biodistribution liver ([3]; 30 min) of 3.15 % ID and a biodistribution muscle ([3]; 30 min) of 7.73 % ID. The biodistribution skin ([3]; 30 min) was 0.86 % ID, the biodistribution spleen ([3]; 30 min) was 0.01 % ID and the biodistribution kidney ([3]; 120 min) was 0.06 % ID. The biodistribution liver ([3]; 120 min) was 1.33 % ID, the biodistribution muscle ([3]; 120 min) was 1.85 % ID and the biodistribution skin ([3]; 120 min) was 0.10 % ID. It also gave a biodistribution spleen ([3]; 120 min) of 0.00 % ID.
